# Test results taken from patent US8546451B2 (priority 2005, dated 2013).
# Marks after values point to notes of the source that are not given here.
# Assays:
# [1] = biological target: progesterone receptor (PR) (Rattus norvegicus (Rat), UniProt Q63449); experiment: Cross-reactivity transcriptional activation assay, PR; type: cell-based; settings: agonist and antagonist modes
# Text: (§1) Compound IV was screened for cross-reactivity against rat isoforms of glucocorticoid receptor (GR), mineralocorticoids receptor (MR), progesterone receptor (PR), androgen receptor (AR) and human isoforms of farnesoid X receptor (FXR), liver X receptor (LXR), peroxisome proliferator-activated receptors (PPAR-α and PPAR-γ), and retinoid X receptor (RXR-α) in both agonist and antagonist modes in transcriptional activation assays.
# dogs = experiment: Single and repeated oral administration toxicity in dogs; type: in vivo
# Text: Compound IV was well-tolerated by rats and dogs after single and repeated oral administration (up to 28 days).
# CYP2C9 = CYP2C9 (Homo sapiens (Human), UniProt P11712); experiment: CYP450 inhibition in vitro, CYP2C9; type: in vitro ADME
# Chain of CYP2C9 (P11712 whole entry): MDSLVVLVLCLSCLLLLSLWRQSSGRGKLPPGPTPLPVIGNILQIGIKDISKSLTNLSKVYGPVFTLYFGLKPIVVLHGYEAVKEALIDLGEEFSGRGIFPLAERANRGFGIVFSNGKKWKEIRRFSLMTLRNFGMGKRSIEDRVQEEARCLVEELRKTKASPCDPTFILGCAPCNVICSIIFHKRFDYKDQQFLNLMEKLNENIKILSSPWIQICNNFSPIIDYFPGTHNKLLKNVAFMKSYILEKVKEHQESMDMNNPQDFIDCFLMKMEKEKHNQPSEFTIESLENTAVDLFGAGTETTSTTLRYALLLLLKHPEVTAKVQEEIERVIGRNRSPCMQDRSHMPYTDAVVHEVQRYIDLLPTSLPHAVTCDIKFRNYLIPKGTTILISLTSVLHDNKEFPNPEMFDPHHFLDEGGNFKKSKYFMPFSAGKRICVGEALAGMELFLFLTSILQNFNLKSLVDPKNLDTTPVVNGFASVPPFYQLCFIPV
# telemetered dogs = experiment: Hemodynamic and cardiac function in telemetered dogs; type: in vivo; settings: any dose (up to 300 mg/kg)
# [2] = biological target: ER-α ligand binding domain (LBD) (Homo sapiens (Human), UniProt P03372); experiment: ER-α competitive radioligand binding assay with [3H]E2; settings: read-out: ER-α Ki
# Chain of ER-α ligand binding domain (LBD) (P03372 whole entry, looked up, species assumed, the tested form may be a part): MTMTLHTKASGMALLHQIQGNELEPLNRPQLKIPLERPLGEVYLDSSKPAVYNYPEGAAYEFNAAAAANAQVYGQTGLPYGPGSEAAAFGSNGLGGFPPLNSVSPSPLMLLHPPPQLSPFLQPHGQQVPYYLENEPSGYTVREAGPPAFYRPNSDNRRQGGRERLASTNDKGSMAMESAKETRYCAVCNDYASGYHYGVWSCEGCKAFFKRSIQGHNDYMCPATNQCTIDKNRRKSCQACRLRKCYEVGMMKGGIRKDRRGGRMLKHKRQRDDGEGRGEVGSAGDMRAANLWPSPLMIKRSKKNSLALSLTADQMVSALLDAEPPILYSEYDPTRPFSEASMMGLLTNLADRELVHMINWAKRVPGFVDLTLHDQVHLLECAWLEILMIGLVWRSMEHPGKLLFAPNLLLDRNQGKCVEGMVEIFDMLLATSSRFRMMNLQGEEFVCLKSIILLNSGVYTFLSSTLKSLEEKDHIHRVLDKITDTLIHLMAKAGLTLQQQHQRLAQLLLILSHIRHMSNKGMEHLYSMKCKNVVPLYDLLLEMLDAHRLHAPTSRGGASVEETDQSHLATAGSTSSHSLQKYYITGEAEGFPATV
# Method: Following incubation, plates were harvested with GF/B filters on the Unifilter-96 Harvester (PerkinElmer) and washed three times with ice-cold buffer B (50 mM Tris, pH 7.2). The filter plates were dried at room temperature, then 35 μl Microscint-O cocktail was added to each well and the filter plates were sealed with TopSeal-A. Radioactivity was counted in a TopCount® NXT Microplate Scintillation Counter using the settings for ^3H in Microscint cocktail (PerkinElmer).
# E2 (determined by incubating with 10^−6 M unlabeled E2) and expressing it as a percentage of the specific binding in the absence of test compound.
# [3] = Neuropharmacological and pulmonary safety pharmacology; settings: in vivo
# [4] = test system: LH, serum PSA, free testosterone and total testosterone; experiment: Compound IV study on human males; type: in vivo
# [5] = test system: serum testosterone and total androgens; experiment: Testosterone suppression in Cynomolgus monkeys; type: in vivo; settings: 30 mg/kg oral daily
# [6] = test system: rat bone, organ weight, and serum hormone parameters; experiment: Bone preservation despite reduction of LH and testosterone in rats; type: in vivo; settings: for Bone Mineral Density / FSH / LH / Levator Ani Muscle weight / Percent Bone Volume (BV/TV) / Prostate weight / Seminal Vesicles weight: Intact
# intact and ORX rats = experiment: Prostate size, Compound IV versus DES in rats; type: in vivo
# [7] = biological target: farnesoid X receptor (FXR) (Homo sapiens (Human), UniProt Q96RI1); experiment: Cross-reactivity transcriptional activation assay, FXR; type: cell-based; settings: agonist and antagonist modes
# Chain of farnesoid X receptor (FXR) (Q96RI1 whole entry): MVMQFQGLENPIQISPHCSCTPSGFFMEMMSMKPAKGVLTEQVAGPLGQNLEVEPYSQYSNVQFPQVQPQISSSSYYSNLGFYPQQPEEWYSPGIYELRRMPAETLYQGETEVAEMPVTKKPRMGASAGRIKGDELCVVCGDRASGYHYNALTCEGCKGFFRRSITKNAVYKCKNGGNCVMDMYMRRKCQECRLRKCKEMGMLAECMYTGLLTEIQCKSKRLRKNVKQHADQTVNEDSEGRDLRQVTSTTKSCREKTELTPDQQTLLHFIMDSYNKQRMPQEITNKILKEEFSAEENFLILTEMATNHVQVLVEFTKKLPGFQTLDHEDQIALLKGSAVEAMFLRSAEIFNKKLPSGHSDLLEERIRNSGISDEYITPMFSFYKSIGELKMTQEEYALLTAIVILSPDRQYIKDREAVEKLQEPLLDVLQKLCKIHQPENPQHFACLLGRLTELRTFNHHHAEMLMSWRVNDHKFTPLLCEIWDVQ
# Text: as §1
# [8] = biological target: retinoid X receptor (RXR-α) (Homo sapiens (Human), UniProt P19793); experiment: Cross-reactivity transcriptional activation assay, RXR-α; type: cell-based; settings: agonist and antagonist modes
# Chain of retinoid X receptor (RXR-α) (P19793 whole entry): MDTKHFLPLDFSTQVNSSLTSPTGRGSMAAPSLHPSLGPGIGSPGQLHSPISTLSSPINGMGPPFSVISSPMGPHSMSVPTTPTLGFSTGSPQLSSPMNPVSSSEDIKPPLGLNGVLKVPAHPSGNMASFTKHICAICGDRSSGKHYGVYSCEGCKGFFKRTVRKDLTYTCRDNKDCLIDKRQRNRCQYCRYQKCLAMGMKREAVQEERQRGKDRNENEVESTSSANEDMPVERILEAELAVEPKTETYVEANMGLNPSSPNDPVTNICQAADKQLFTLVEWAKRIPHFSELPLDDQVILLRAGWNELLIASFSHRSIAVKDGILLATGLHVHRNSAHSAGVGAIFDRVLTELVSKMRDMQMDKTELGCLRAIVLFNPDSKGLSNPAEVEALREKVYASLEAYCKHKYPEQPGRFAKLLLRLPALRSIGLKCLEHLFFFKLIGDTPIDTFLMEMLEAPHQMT
# Text: as §1
# [9] = test system: isolated canine Purkinje fibers; experiment: Action potential duration in isolated canine Purkinje fibers; settings: 10 and 100 μM
# PPAR-α = PPAR-α (Homo sapiens (Human), UniProt Q07869); experiment: Cross-reactivity transcriptional activation assay, PPAR-α; type: cell-based; settings: agonist and antagonist modes
# Chain of PPAR-α (Q07869 whole entry): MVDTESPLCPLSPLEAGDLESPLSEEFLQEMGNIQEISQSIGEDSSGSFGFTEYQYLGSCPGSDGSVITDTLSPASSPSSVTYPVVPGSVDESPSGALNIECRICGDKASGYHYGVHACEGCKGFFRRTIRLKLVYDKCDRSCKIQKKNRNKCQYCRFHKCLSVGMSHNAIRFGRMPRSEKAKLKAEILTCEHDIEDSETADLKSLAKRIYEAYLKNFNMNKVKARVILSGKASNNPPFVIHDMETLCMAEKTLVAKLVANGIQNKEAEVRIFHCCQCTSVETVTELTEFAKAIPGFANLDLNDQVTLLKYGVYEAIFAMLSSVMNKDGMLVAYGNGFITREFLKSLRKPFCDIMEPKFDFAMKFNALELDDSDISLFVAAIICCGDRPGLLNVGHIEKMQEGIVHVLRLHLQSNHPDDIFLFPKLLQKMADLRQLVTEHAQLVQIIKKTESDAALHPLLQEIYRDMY
# Text: as §1
# hERG channel = hERG channel (Homo sapiens (Human), UniProt Q12809); experiment: hERG channel inhibition in vitro; type: cell-based
# Chain of hERG channel (Q12809 whole entry): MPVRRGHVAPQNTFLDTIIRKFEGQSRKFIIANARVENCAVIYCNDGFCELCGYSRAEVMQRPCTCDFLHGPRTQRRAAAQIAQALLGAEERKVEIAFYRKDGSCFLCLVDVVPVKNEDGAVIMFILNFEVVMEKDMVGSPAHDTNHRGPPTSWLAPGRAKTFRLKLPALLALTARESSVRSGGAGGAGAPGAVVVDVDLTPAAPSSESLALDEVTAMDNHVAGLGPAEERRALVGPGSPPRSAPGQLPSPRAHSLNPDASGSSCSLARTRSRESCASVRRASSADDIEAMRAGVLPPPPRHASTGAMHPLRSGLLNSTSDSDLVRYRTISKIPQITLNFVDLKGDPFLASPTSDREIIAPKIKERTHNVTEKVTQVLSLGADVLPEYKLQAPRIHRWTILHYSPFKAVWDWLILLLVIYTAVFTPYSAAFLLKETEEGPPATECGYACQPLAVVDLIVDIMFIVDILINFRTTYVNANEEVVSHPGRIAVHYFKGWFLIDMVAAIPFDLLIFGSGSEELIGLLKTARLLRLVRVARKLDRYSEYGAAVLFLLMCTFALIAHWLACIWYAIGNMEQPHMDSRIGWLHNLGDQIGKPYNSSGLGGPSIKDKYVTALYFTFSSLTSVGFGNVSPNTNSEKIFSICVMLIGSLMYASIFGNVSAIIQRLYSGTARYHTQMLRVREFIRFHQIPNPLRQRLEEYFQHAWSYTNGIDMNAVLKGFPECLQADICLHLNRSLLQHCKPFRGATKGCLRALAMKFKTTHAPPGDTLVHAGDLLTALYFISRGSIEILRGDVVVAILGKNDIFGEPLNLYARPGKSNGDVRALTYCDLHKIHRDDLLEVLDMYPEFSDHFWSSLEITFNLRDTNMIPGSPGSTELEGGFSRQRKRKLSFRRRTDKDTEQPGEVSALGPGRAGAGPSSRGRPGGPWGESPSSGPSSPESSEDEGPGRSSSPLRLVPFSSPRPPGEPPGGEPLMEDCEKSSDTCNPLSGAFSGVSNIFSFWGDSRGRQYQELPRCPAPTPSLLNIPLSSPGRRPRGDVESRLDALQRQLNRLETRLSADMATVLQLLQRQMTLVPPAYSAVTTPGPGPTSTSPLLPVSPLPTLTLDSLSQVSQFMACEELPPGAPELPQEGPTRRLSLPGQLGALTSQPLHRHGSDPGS
# Method: Compound IV exerts little or no in vitro inhibitory effects (IC50≧300 μM) on the hERG channel.
# Chain of progesterone receptor (PR) (Q63449 whole entry, canonical isoform): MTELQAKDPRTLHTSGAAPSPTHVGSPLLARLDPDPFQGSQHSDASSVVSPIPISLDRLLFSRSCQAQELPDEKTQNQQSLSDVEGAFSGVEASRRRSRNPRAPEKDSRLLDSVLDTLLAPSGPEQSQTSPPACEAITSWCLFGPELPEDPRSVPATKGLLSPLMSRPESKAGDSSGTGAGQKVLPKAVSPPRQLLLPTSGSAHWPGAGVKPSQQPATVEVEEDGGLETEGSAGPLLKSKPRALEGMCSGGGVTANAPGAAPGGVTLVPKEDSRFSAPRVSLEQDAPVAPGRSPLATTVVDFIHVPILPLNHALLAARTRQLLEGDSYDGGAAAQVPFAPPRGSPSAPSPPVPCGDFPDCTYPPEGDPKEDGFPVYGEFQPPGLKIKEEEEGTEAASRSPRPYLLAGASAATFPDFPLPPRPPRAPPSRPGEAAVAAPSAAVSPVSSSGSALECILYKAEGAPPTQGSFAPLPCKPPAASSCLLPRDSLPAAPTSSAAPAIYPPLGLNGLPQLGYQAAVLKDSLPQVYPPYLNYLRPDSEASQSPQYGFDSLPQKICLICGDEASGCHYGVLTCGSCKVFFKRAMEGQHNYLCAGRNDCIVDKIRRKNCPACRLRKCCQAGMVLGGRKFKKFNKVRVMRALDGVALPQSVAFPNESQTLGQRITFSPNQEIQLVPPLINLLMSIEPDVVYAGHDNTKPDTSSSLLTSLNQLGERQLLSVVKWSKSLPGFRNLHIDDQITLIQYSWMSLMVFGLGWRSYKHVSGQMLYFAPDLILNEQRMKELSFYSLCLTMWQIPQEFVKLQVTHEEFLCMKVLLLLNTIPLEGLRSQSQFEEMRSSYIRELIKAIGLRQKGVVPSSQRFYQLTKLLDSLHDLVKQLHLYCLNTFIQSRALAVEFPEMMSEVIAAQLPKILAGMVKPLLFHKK
smiles,measurement,setting,value
"O=C(c1ccc(O)c(F)c1)N(c1ccc(O)cc1)c1ccc(F)cc1 [Compound IV, 3-fluoro-N-(4-fluorophenyl)-4-hydroxy-N-(4-hydroxyphenyl)benzamide]",agonist or antagonist activity,[1],did not display any agonist or antagonist activity
same,tolerability,"dogs; dogs, single and repeated oral administration (up to 28 days)",well-tolerated
same,"pathologic changes in kidney, liver, heart and other non-target-related organs","dogs; dogs, up to 28 days oral",no pathologic changes observed
same,toxicity findings,"dogs; male or female dogs, oral, up to 28 days","no serious physical signs, body weight effects, clinical pathology changes, ophthalmologic, electrocardiographic, or histopathologic changes"
same,mutagenicity,Mutagenicity,not mutagenic
same,Ki,CYP2C9,8 µM
same,"hemodynamic or cardiac function (blood pressure, heart rate, electrocardiogram morphology or QT intervals)",telemetered dogs,did not affect
same,Ki,[2],0.0217 ± 0.0017 µM
same,neuropharmacological or pulmonary effects,[3],No neuropharmacological or pulmonary effects were observed
same,"Free Testosterone, mean change from baseline",[4]; 100 mg,−17.0%
same,"LH, mean change from baseline",[4]; 100 mg,20.7%
same,"Serum PSA, mean change from baseline",[4]; 100 mg,−9.2%
same,"Total Testosterone, mean change from baseline",[4]; 100 mg,3.9%
same,decrease of PSA levels,[4]; 100 mg,9.2%
same,decrease of free testosterone levels,[4]; 100 mg,17.0%
same,"Free Testosterone, mean change from baseline",[4]; 300 mg,−18.5%
same,"LH, mean change from baseline",[4]; 300 mg,46.9%
same,"Serum PSA, mean change from baseline",[4]; 300 mg,−24.4%
same,"Total Testosterone, mean change from baseline",[4]; 300 mg,7.3%
same,decrease of PSA levels,[4]; 300 mg,24.4%
same,decrease of free testosterone levels,[4]; 300 mg,18.5%
same,"Free Testosterone, mean change from baseline",[4]; 600 mg,−72.7%
same,"LH, mean change from baseline",[4]; 600 mg,27.6%
same,"Serum PSA, mean change from baseline",[4]; 600 mg,−27.5%
same,"Total Testosterone, mean change from baseline",[4]; 600 mg,−51.9%
same,decrease of PSA levels,[4]; 600 mg,27.5%
same,decrease of free testosterone levels,[4]; 600 mg,72.7%
same,decrease of total testosterone level,[4]; 600 mg,51.9%
same,"Free Testosterone, mean change from baseline",[4]; 1000 mg,−53.2%
same,"LH, mean change from baseline",[4]; 1000 mg,29.2%
same,"Serum PSA, mean change from baseline",[4]; 1000 mg,−29.9%
same,"Total Testosterone, mean change from baseline",[4]; 1000 mg,−47.9%
same,decrease of PSA levels,[4]; 1000 mg,29.9%
same,decrease of free testosterone levels,[4]; 1000 mg,53.2%
same,decrease of total testosterone level,[4]; 1000 mg,47.9%
same,changes of PSA levels,[4]; 10 and 30 mg doses,No changes
same,Testosterone Percent reduction from baseline,"[5]; Animal 1, Day 2",16%
same,Testosterone Serum level,"[5]; Animal 1, Day 2",937 pg/mL
same,Total Androgens Percent reduction from baseline,"[5]; Animal 1, Day 2",37%
same,Total Androgens Serum level,"[5]; Animal 1, Day 2",1178 pg/mL
same,Testosterone Percent reduction from baseline,"[5]; Animal 1, Day 3",30%
same,Testosterone Serum level,"[5]; Animal 1, Day 3",784 pg/mL
same,Total Androgens Percent reduction from baseline,"[5]; Animal 1, Day 3",42%
same,Total Androgens Serum level,"[5]; Animal 1, Day 3",1078 pg/mL
same,Testosterone Percent reduction from baseline,"[5]; Animal 1, Day 4",51%
same,Testosterone Serum level,"[5]; Animal 1, Day 4",552 pg/mL
same,Total Androgens Percent reduction from baseline,"[5]; Animal 1, Day 4",47%
same,Total Androgens Serum level,"[5]; Animal 1, Day 4",988 pg/mL
same,Testosterone Percent reduction from baseline,"[5]; Animal 1, Day 5",64%
same,Testosterone Serum level,"[5]; Animal 1, Day 5",403 pg/mL
same,Total Androgens Percent reduction from baseline,"[5]; Animal 1, Day 5",48%
same,Total Androgens Serum level,"[5]; Animal 1, Day 5",966 pg/mL
same,Testosterone Percent reduction from baseline,"[5]; Animal 1, Day 6",58%
same,Testosterone Serum level,"[5]; Animal 1, Day 6",474 pg/mL
same,Total Androgens Percent reduction from baseline,"[5]; Animal 1, Day 6",56%
same,Total Androgens Serum level,"[5]; Animal 1, Day 6",819 pg/mL
same,Testosterone Percent reduction from baseline,"[5]; Animal 3, Day 2",22%
same,Testosterone Serum level,"[5]; Animal 3, Day 2",479 pg/mL
same,Total Androgens Percent reduction from baseline,"[5]; Animal 3, Day 2",48%
same,Total Androgens Serum level,"[5]; Animal 3, Day 2",847 pg/mL
same,Testosterone Percent reduction from baseline,"[5]; Animal 3, Day 3",29%
same,Testosterone Serum level,"[5]; Animal 3, Day 3",437 pg/mL
same,Total Androgens Percent reduction from baseline,"[5]; Animal 3, Day 3",52%
same,Total Androgens Serum level,"[5]; Animal 3, Day 3",786 pg/mL
same,Testosterone Percent reduction from baseline,"[5]; Animal 3, Day 4",33%
same,Testosterone Serum level,"[5]; Animal 3, Day 4",415 pg/mL
same,Total Androgens Percent reduction from baseline,"[5]; Animal 3, Day 4",44%
same,Total Androgens Serum level,"[5]; Animal 3, Day 4",924 pg/mL
same,Testosterone Percent reduction from baseline,"[5]; Animal 3, Day 5",55%
same,Testosterone Serum level,"[5]; Animal 3, Day 5",276 pg/mL
same,Total Androgens Percent reduction from baseline,"[5]; Animal 3, Day 5",60%
same,Total Androgens Serum level,"[5]; Animal 3, Day 5",664 pg/mL
same,Testosterone Percent reduction from baseline,"[5]; Animal 3, Day 6",64%
same,Testosterone Serum level,"[5]; Animal 3, Day 6",221 pg/mL
same,Total Androgens Percent reduction from baseline,"[5]; Animal 3, Day 6",56%
same,Total Androgens Serum level,"[5]; Animal 3, Day 6",726 pg/mL
same,Bone Mineral Density,[6]; 1 mg/kg per day oral,0.273^b g/cm^3
same,FSH,[6]; 1 mg/kg per day oral,"14.1^a,b ng/mL"
same,LH,[6]; 1 mg/kg per day oral,0.820^b ng/mL
same,Levator Ani Muscle weight,[6]; 1 mg/kg per day oral,"80.0^a,b % of Intact"
same,Percent Bone Volume (BV/TV),[6]; 1 mg/kg per day oral,20.0^b %
same,Prostate weight,[6]; 1 mg/kg per day oral,"69.2^a,b % of Intact"
same,Seminal Vesicles weight,[6]; 1 mg/kg per day oral,"44.6^a,b % of Intact"
same,Bone Mineral Density,[6]; 10 mg/kg per day oral,"0.326^a,b g/cm^3"
same,FSH,[6]; 10 mg/kg per day oral,"5.48^a,b ng/mL"
same,LH,[6]; 10 mg/kg per day oral,"0.060^a,b ng/mL"
same,Levator Ani Muscle weight,[6]; 10 mg/kg per day oral,58.1^a % of Intact
same,Percent Bone Volume (BV/TV),[6]; 10 mg/kg per day oral,"25.9^a,b %"
same,Prostate weight,[6]; 10 mg/kg per day oral,"30.7^a,b % of Intact"
same,Seminal Vesicles weight,[6]; 10 mg/kg per day oral,"12.8^a,b % of Intact"
same,Bone Mineral Density,[6]; 30 mg/kg per day oral,"0.326^a,b g/cm^3"
same,FSH,[6]; 30 mg/kg per day oral,"6.32^a,b ng/mL"
same,LH,[6]; 30 mg/kg per day oral,"0.078^a,b ng/mL"
same,Levator Ani Muscle weight,[6]; 30 mg/kg per day oral,56.1^a % of Intact
same,Percent Bone Volume (BV/TV),[6]; 30 mg/kg per day oral,"25.5^a,b %"
same,Prostate weight,[6]; 30 mg/kg per day oral,"30.1^a,b % of Intact"
same,Seminal Vesicles weight,[6]; 30 mg/kg per day oral,"14.4^a,b % of Intact"
same,dose levels with significant reduction of LH,[6]; intact animals,≥ 10 mg/kg per day
same,bone loss associated with LH suppression,"[6]; intact male rats, orally administered",completely prevented the bone loss
same,prostate size of ORX rats,intact and ORX rats; ORX rats (FIG. 11B),moderate increase
same,reduction of prostate size,"intact and ORX rats; rats (FIG. 11A), compared with DES",as effective as DES
same,agonist or antagonist activity,[7],did not display any agonist or antagonist activity
same,agonist or antagonist activity,[8],did not display any agonist or antagonist activity
same,APD50,[9],decreased
same,APD90,[9],decreased
same,agonist or antagonist activity,PPAR-α,did not display any agonist or antagonist activity
same,IC50,hERG channel,≥ 300 µM
